Literature values as cited in patent US20110313040A1, “ORGANIC NUTRIENT SALTS, METHODS OF PREPARATION AND USES” (BELLUS HEALTH INC., priority 2008, published 2011).

Settings: in vivo

Compound: NCCCS(=O)(=O)[O-].[Na+] [sodium salt of homotaurine]
- stomach and gastrointestinal tolerance: caused stomach and gastrointestinal intolerance (e.g. nausea, vomiting)
